The values that follow come from patent US8242136B2, “Use of glucosidase inhibitors for therapy of mucovisidosis” (Centre National de la Recherche Scientifique (C.N.R.S.), priority 2003, dated 2012).

Data set [1] concerns delF508-CFTR. In words: Iodide efflux on CF15 cells: addressing of delF508 after pre-treatment, stimulation with forskolin + genistein. Format: cell-based, human. As for the experimental part:
CF15 cells: CF15 cells are human epithelial cells of nasal origin which express the ΔF508-CFTR gene.
The measurements of chloride ion transport in the cells were carried out using the radioactive iodide efflux technique (Becq et al., 1999; Dormer et al., 2001). The tracer (^125I) is incorporated into the intracellular medium. Then, the quantity of radiotracer leaving the cell is counted after the addition of different pharmacological agents. The iodide is used as a tracer of the chloride ion transport. It has been shown that the two radiotracers ^125I and ^36Cl could be considered as equivalents for measuring the activity of a chloride channel (Venglarick et al., 1990). ^125I moreover has the advantage of having a short life compared with that of […] (respective half-lives: 30 days and 300,000 years). The cells are cultured on 24-well plates in an appropriate medium. 2 rinsings with efflux medium (NaCl: 136.6 mM, KCl: 5.4 mM, KH2PO4: 0.3 mM, NaH2PO4: 0.3 mM, NaHCO3: 4.2 mM, CaCl2: 1.3 mM, MgCl2: 0.5 mM, MgSO4: 0.4 mM, HEPES: 10 mM, D-glucose: 5.6 mM) are carried out in order to eliminate the dead cells which release the radioactivity in an anarchic manner. Then, the cells are incubated with 500 μl of charge (1 μCi/ml of ^125INa) for 30 minutes for CHO-WT or 1 hour for CF15 and Calu-3. The iodide is in equilibrium on both sides of the cell membrane. The robot (MultiPROBE, Packard) carries out the following stages: The charge medium is rinsed with efflux medium in order to eliminate the extracellular radioactivity. The supernatant is collected every minute in haemolysis tubes and the medium is replaced by an equivalent volume (500 μl). The samples taken in the first 3 minutes are not subjected to the addition of a drug, they make it possible to obtain a stable base line, characterizing the passive exit of the I^− ions. The following 7 samples are obtained in the presence of the molecule to be tested. At the end of the experiment, the cells are lysed by the addition of 500 μl of NaOH (0.1 N)/0.1% SDS (30 minutes), thus, the radioactivity remaining inside the cell can be determined. The radioactivity present in the haemolysis tubes is counted in counts per minute (cpm) using a gamma counter (Cobra II, Packard). The results in cpm are expressed in the form of exit speed of radioactive iodide (R) according to the following formula: R (min^−1)=[ln(^125I t1)−ln(^125I t2)]/(t1−t2) with ^125I t1: cpm at time t1; ^125I t2: cpm at time t2. This iodide flow is represented in the form of a curve. In order to quantify the exit of iodide due to the administration of the molecule tested, the following relative flow is calculated which makes it possible to be rid of the base flow: Relative speed (min^−1)=Rpeak−Rbasal. […] The results are presented in the form of an average+/−SEM. Student's statistical test is used in order to compare the effects of the drugs with the controls (the values corresponding to P<0.01 are considered statistically significant).
For each experiment, the addition of a cocktail (Forskolin 10 μM, Genistein 30 μM) allows the activation of the CFTR when the latter is on the membrane. […]
The CF15 cells were pre-treated for 2 hours with NB-DNJ (500μM). […] The CFTR activity is measured in iodide efflux (n=8 for each condition) after stimulation by fsk 10μM+Gst 30μM.
The CF15 cells were pre-treated for 2 hours with NB-DNJ at different concentrations. The CFTR activity is measured in iodide efflux (n=4 for each concentration) after stimulation with fsk 10μM+Gst 30μM.

The subject of data set [2] is delF508-CFTR. Described as above. It counts as cell-based, human. Conditions: CF15 cells treated with 100μM for two hours at 37° C.; Forskolin 10μM + Genistein 30μM; FIG. 7.
Another data set relates to delF508. Conditions: pulmonary epithelial cells; cited from earlier work.
The target in data set [3] is T1, wild-type CFTR (Homo sapiens, UniProt P13569).
T1 construct: Calu-3 cells are human epithelial cells of pulmonary origin which express the wild-type CFTR gene; endogenous in cells; host or cells: Calu-3 human pulmonary epithelial cells
T1 sequence (P13569 whole entry): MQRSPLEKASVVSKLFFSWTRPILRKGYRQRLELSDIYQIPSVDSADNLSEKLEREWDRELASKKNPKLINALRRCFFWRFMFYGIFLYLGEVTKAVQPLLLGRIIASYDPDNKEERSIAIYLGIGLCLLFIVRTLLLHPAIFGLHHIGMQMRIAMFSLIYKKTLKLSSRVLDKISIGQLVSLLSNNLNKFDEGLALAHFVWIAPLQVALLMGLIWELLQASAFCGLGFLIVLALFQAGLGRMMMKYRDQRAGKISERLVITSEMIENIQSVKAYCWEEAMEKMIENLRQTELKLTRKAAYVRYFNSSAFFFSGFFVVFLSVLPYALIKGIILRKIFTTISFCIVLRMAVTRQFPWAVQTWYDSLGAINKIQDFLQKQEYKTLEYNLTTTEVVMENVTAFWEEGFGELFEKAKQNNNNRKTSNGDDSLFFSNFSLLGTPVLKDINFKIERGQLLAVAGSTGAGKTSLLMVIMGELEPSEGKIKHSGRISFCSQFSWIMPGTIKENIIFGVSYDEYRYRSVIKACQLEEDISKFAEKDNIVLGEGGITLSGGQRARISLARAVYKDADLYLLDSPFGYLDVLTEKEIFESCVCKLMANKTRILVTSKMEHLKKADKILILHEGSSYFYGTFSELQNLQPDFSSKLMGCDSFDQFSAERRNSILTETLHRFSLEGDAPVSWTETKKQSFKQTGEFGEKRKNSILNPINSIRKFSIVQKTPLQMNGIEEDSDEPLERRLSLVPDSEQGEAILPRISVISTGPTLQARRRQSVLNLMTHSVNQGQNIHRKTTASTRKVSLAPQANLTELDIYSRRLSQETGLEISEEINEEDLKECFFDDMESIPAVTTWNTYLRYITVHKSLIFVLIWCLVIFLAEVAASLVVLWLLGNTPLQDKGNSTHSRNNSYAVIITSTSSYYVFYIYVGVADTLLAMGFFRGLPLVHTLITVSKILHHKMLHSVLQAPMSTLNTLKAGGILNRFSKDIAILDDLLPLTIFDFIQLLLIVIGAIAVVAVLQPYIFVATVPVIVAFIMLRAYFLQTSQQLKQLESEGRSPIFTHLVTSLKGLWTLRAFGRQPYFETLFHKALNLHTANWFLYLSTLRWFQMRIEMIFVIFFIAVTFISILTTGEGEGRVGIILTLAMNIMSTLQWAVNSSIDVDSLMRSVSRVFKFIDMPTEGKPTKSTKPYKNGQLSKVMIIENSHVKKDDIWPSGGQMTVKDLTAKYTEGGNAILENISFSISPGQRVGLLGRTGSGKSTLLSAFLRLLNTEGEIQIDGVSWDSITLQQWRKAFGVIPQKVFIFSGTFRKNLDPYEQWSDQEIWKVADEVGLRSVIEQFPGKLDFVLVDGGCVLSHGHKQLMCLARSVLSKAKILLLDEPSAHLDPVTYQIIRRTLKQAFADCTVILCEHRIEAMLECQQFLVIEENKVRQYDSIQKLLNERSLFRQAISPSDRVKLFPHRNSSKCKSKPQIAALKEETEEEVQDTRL
The experiment in a line: Iodide efflux on Calu-3 cells: compound tested as activator. Format: cell-based. Conditions: fsk 5μM, MPB-91 250μM, NB-DNJ 500μM, n=8. As for the experimental part:
(§1) Calu-3 cells: Calu-3 cells are human epithelial cells of pulmonary origin which express the wild-type CFTR gene.
(§2) The measurements of chloride ion transport in the cells were carried out using the radioactive iodide efflux technique (Becq et al., 1999; Dormer et al., 2001). The tracer (^125I) is incorporated into the intracellular medium. Then, the quantity of radiotracer leaving the cell is counted after the addition of different pharmacological agents. The iodide is used as a tracer of the chloride ion transport. […] 2 rinsings with efflux medium (NaCl: 136.6 mM, KCl: 5.4 mM, KH2PO4: 0.3 mM, NaH2PO4: 0.3 mM, NaHCO3: 4.2 mM, CaCl2: 1.3 mM, MgCl2: 0.5 mM, MgSO4: 0.4 mM, HEPES: 10 mM, D-glucose: 5.6 mM) are carried out in order to eliminate the dead cells which release the radioactivity in an anarchic manner. […] The robot (MultiPROBE, Packard) carries out the following stages: The charge medium is rinsed with efflux medium in order to eliminate the extracellular radioactivity. […] At the end of the experiment, the cells are lysed by the addition of 500 μl of NaOH (0.1 N)/0.1% SDS (30 minutes), thus, the radioactivity remaining inside the cell can be determined. The radioactivity present in the haemolysis tubes is counted in counts per minute (cpm) using a gamma counter (Cobra II, Packard). […]

The subject of data set [4] is wild-type CFTR. In words: Iodide efflux on Calu-3 cells pre-treated for 2 hours: addressing of wild-type CFTR. It counts as cell-based, human. To be noted: Calu-3 cells pre-incubated 2 hours at 37° C. (NB-DNJ 500μM or MPB-91 250μM), stimulated with 250μM MPB-91. On the procedure:
as §1, §2

A further data set has as its system CHO-WT cells. In words: MTT cytotoxicity test on CHO-WT cells. It counts as cell-based, Chinese Hamster. To be noted: 2 hours; for cytotoxicity (MTT): CHO cells. On the procedure:
CHO-WT cells: CHO (Chinese Hamster Ovary) cells are fibroblasts which have been transfected with the wild-type CFTR gene (CFTR-WT). These cells will therefore overexpress the CFTR protein.
The MTT toxicity test is a colorimetric test which is based on the ability of the mitochondrial dehydrogenases to metabolize MTT (yellow tetrazolium salt) to formazan (purple). The absorbance, proportional to the concentration of converted dye, can then be measured by spectrophotometry. The cells are incubated on 96-well plates in the presence of the agent to be tested for 2 hours. 3 controls are carried out: 100% live cells: cells without agent; 0% live cells: cells left in the open air; blank: medium without cells. […] Then they are incubated for 4 hours with 100 μl of RPMI solution supplemented with MTT (0.5 mg/ml). The medium is then eliminated, the addition of 100 μl of DMSO makes it possible to solubilize the converted dye (formazan). The absorbance is measured by spectrophotometry at: 570 nm (purple); 630 nm (background noise). In order to be rid of the background noise, the following calculation is carried out: ODreal=OD570 nm−OD630 nm.
For the purpose of testing the cytotoxicity of NB-DNJ, CHO-WT cells were incubated for 2 hours with different concentrations of inhibitors before being subjected to the cell viability test with MTT.
2 hours of treatment of the cells.
In general terms: Tetrazolium assays rely on reduction of a dye to a coloured formazan, in cell work by metabolically active cells.

Data set [5] has as its system delF508-CFTR. In words: Immunolabelling / cell imaging of delF508 location in CF15 cells. Format: cell-based, human. Conditions: CF15 cells after treatment. On the procedure: Immunolabelling makes it possible to visualize the cell location of the CFTR protein by means of an anti-CFTR primary antibody (Ab) then a primary anti-antibody secondary antibody labelled with Cy3 fluorophore. The cells are previously seeded on lamellae in appropriate culture medium. 3 washings with TBS (NaCl: 157 mM, Tris base: […], pH 7.4) of 5 minutes each are carried out. The cells are then fixed by the addition of TBS-paraformadehyde (3%) over 20 minutes. After 3 washings with TBS (5 minutes), the cells are incubated with 0.1% TBS-triton (10 minutes) which allows the formation of holes in the cell membrane, then 3 washings with TBS are once again carried out before bringing the cells together with 0.5% TBS-BSA-0.05% saponin for 1 hour. The cells are then incubated with the CFTR anti-C terminal primary antibody (2μg/ml) for 1 hour. 3 washings with TBS-BSA-saponin of 5 minutes each are carried out before incubation with the GAM-cy3 secondary antibody ( 1/400) for 1 hour. Following two 5-minute washings with TBS, the nuclei are labelled by incubation with Topro3 ( 1/1000) for 5 minutes. Finally, the lamellae can be mounted on slides after three last 5-minute washings with TBS. […] In order to differentiate between Cy3 and Topro3 labelling the colour of fluorescence of Topro3 has been changed to blue (colour of the nuclei). […]

A further data set relates to tissues in culture. To be noted: high concentration (2 mM); cited from earlier work.
The conditions of data set [6]: patients suffering from acquired immunodeficiency syndrome; cited from earlier work.
The mark [7] stands for this setting: CF15 cells, stimulation Forskolin 10μM + Genistein 30μM.

“Also recorded” adds a separate entry of the source.

In the case of `OCC1NCC(O)C(O)C1O` (stereo not drawn) [DMJ], the EC50 – broadly, the concentration giving half of the maximal effect – with delF508-CFTR [1] (setting [7]) stood at 134 µM. Besides, the “addressing of delF508 and function as ion transporter (iodide efflux)” value (shortened to “addressing of delF508 and function”) in the data set with delF508-CFTR [2] is “restores an addressing of the delF508 protein and allows the latter to function as an ion transporter”.
As to `CCCCN1C[C@H](O)[C@@H](O)[C@@H](O)[C@H]1CO` [nB-DGJ], in the data set on delF508-CFTR [2], the “addressing of delF508 and function” value is reported as “no significant effect”.
Consider `CCCCN1C[C@@H](O)[C@H](O)[C@H](O)[C@@H]1C` [nB-DFJ], for which, in the data set with delF508-CFTR [2], the “addressing of delF508 and function” value is “no significant effect”.
The same measure, in the same setting: the result for `C[C@@H]1NC[C@@H](O)[C@H](O)[C@@H]1O` [DFJ] reads “no significant effect”; that for `OC[C@H]1NC[C@H](O)[C@@H](O)[C@H]1O` [DGJ], “no significant effect”.
In the case of `OC[C@H]1NC[C@H](O)[C@@H](O)[C@@H]1O` [DNJ], in the data set on delF508-CFTR [1] (setting [7]), the EC50 was more than 250 µM. The “addressing of delF508 and function” value in the data set with delF508-CFTR [2] is “restores an addressing of the delF508 protein and allows the latter to function as an ion transporter”.
As for `O[C@H]1[C@H](O)[C@@H](O)CN2CC[C@H](O)[C@H]12` [castanospermine], the “presence of delF508 at the surface of cells” value with delF508 is “had an effect on the renewal of the presence of delF508 at the surface of pulmonary epithelial cells”.
On to `CCCCN1C[C@@H](O)[C@@H](O)[C@H](O)[C@H]1CO` [nB-DMJ], for which the EC50 in the data set on delF508-CFTR [1] (setting [7]) was found to be 113 µM. For the same molecule, in the data set with delF508-CFTR [2], the “addressing of delF508 and function” value was “restores an addressing of the delF508 protein and allows the latter to function as an ion transporter”.
As for `CCCCc1c(O)c2cccc(Cl)c2[n+]2ccccc12` [MPB-91], the “activation of iodide efflux (CFTR activity / anionic transports)” value on wild-type CFTR [3] is listed as “activate an iodide efflux”. Besides, the “CFTR activity (iodide efflux) after 2 hours pre-treatment” value in the data set with wild-type CFTR [4] was “not significantly different”.
For the molecule `CCCCN1C[C@H](O)[C@@H](O)[C@H](O)[C@H]1CO` [NB-DNJ, N-butyl-deoxynojirimycin], the “addressing of delF508 and function” value in the data set on delF508-CFTR [1] (CF15 cells pre-treated 2 hours at 37° C. with 500μM, stimulation fsk 10μM + Gst 30μM, MPB-91 250μM = 100%) is “restores addressing of the delF508 protein and allows the latter to function as an ion transporter”. Besides, the EC50 with delF508-CFTR [1] (CF15 cells pre-treated 2 hours, stimulation fsk 10μM + Gst 30μM, FIG. 2) was 123 µM. Further, the “activation of iodide efflux (CFTR activity / anionic transports)” value at wild-type CFTR [3] is recorded as “is not an activator of the wild-type CFTR nor of other anionic transports of these cells; also recorded: has no effect”. Besides, the “CFTR activity (iodide efflux) after 2 hours pre-treatment” value in the data set on wild-type CFTR [4] was “the level of CFTR activity is not affected”. Besides, the “cytotoxicity (MTT)” value is on record as “no cytotoxicity is measurable” in the data set on CHO-WT cells (5μM), “no cytotoxicity is measurable” with CHO-WT cells (50μM) and “A low toxicity appears” in the data set with CHO-WT cells (500μM). In addition, the “cell viability / cytotoxicity (MTT)” value with CHO-WT cells (CHO-WT cells, all concentrations) was “exhibits no cell cytotoxicity”. Further, in the data set with delF508-CFTR [5], the “location of delF508 protein by cell imaging” value is on record as “located the delF508 protein in the plasmatic membrane compartments”. Besides, the “cytotoxicity on tissues in culture” value with tissues in culture is listed as “is not cytotoxic”. For the same molecule, in data set [6], the tolerability in patients result is recorded as “well tolerated”.
